Results as given in patent publication US20240317739A1, “NOVEL UREA DERIVATIVE COMPOUND AS RON INHIBITOR” (LG CHEM, LTD., priority 2021, published 2024).

How the values were obtained:
[1] = target: RON (Homo sapiens, UniProt Q04912); test: Evaluation of inhibitory activity against RON (TR-FRET); type: biochemical; details: TR-FRET kinase assay, RON protein
Protocol: In order to measure the inhibitory activity of each of the compounds of Examples against RON, the IC50 of each of the compounds was measured using a Time-Resolved Fluorescence Energy Transfer Chemistry (TR-FRET).
(§1) Specifically, the compound was prepared to a concentration of 1 mM with 100% DMSO and was diluted 10 times in a stepwise manner through 3-fold dilution. 2 ul of the compound diluted in a stepwise manner was added to a 96-well-plate containing 48 ul of a 1×kinase reaction buffer (50 mM HEPES (pH 7.4), 0.01% Tween-20, 5 mM DTT, 0.5 mM Na3VO4, 2 mM EGTA, 10 mM MgCl2).
The RON protein was diluted to a concentration of 49.3 nM with an RON storage buffer (50 mM Tris-HCl (pH 7.5), 150 mM NaCl, 0.5 mM EDTA, 0.02% Triton X-100), and then diluted again to a concentration of 0.4 nM with a 1×kinase reaction buffer. As a substrate cocktail, a RON-specific substrate mixture (40 uM ULight-labeled Poly GT, 100 nM ATP) at a concentration 2 times the final reaction concentration.
(§2) Thereafter, a 384-well-plate was prepared, and 2.5 μl of each of the diluted compounds of Examples was added to a corresponding well of experimental group wells, and 2.5 μl of a 4% DMSO solution was dispensed into high control wells and low control wells.
(§3) Thereafter, 2.5 μL of 0.4 nM RON was dispensed into the high control wells and the experimental group wells, and 2.5 μL of a 1× kinase reaction buffer was added to the low control wells, and the RON and the reaction buffer were centrifuged at room temperature for 40 seconds at 1000 RPM, and then incubated at room temperature for 20 to 30 minutes. Then, 5 uL of a substrate cocktail (2×) was dispensed into all wells, centrifuged at room temperature for 40 seconds at 1000 RPM, and then incubated at room temperature for 60 minutes. Thereafter, 5 uL of 30 mM EDTA was added to all wells to terminate the reaction, and then incubated again at room temperature for 5 minutes. Thereafter, 5 uL of a 4× phosphotyrosine antibody (Perkin Elmer) containing europium was added to all wells, and then incubated at room temperature for 60 minutes. After the incubation, the 384-well-plate was read with a Vison plate reader. At this time, the excitation wavelength was 340 nm, and the emission wavelength was 620 nm and 665 nm. The IC50 value of the compound of each Example was derived using the GraphPd Prism7 program.

[2] = target: cMET (Homo sapiens, UniProt P08581); test: Evaluation of inhibitory activity against MET (TR-FRET); type: biochemical; details: TR-FRET kinase assay, cMET protein
Sequence of cMET (P08581 25-1390): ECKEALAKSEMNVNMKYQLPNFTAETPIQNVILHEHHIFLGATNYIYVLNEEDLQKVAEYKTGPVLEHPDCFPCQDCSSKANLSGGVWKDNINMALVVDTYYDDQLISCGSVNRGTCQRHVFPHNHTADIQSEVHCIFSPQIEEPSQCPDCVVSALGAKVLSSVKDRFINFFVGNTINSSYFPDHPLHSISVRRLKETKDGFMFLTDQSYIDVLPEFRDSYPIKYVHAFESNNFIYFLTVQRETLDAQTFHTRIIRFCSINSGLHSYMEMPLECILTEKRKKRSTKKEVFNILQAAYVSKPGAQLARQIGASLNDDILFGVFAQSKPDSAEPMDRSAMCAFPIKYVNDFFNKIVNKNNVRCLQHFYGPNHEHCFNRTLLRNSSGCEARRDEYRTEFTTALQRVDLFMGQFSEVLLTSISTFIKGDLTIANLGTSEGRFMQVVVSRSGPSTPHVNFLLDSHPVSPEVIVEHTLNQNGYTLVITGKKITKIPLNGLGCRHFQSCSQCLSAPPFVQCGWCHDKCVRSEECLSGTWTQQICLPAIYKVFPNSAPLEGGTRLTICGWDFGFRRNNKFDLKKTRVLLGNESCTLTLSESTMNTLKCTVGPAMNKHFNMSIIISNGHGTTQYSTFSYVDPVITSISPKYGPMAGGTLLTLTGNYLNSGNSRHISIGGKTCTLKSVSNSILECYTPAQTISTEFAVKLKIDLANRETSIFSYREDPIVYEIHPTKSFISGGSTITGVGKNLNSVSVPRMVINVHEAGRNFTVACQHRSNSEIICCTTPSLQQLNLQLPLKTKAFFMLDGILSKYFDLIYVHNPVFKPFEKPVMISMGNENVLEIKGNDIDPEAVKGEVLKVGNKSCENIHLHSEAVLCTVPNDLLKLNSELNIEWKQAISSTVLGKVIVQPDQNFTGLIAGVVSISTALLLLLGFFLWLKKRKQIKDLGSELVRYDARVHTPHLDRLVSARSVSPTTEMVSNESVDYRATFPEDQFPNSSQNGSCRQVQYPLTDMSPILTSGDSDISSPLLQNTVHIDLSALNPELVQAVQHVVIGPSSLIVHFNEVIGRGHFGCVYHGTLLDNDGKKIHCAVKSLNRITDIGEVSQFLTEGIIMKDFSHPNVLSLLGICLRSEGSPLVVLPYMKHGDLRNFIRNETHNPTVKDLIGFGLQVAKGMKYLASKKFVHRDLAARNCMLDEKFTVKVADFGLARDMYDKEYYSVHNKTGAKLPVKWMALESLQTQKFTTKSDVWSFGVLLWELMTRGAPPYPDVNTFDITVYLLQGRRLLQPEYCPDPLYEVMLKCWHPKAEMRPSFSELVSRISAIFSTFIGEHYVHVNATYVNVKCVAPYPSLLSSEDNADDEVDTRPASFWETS
Protocol: In addition, in order to measure the enzyme activity inhibition for cMET, the evaluation was performed in the same manner as the enzyme activity inhibition measurement experiment for the RON.
as §1, with “a 1× kinase” for “a 1×kinase”, “7.4), 0.05% BSA, 0.005%” for “7.4), 0.01%”, “Tween-20, 1” for “Tween-20, 5”, “mM MnCl2, 20” for “mM Na3VO4, 2 mM EGTA, 10”
The cMET protein was diluted to a concentration of 263 nM with a cMET storage buffer (50 mM Tris-HCl (pH 7.5), 150 mM NaCl, 0.05% Brij35, 1 mM DTT, 10% Glycerol), and then diluted again to a concentration of 2 nM with a 1× kinase reaction buffer. As a substrate cocktail, a MET-specific substrate mixture (5 uM TK peptide, […]) at a concentration 2 times the final reaction concentration.
as §2
as §3, with “of 2” for “of 0.4”, “nM cMET” for “nM RON”, “of 90” for “of 30”, “The […]” for “The IC50”

Sequence of RON (Q04912 25-1400, species assumed): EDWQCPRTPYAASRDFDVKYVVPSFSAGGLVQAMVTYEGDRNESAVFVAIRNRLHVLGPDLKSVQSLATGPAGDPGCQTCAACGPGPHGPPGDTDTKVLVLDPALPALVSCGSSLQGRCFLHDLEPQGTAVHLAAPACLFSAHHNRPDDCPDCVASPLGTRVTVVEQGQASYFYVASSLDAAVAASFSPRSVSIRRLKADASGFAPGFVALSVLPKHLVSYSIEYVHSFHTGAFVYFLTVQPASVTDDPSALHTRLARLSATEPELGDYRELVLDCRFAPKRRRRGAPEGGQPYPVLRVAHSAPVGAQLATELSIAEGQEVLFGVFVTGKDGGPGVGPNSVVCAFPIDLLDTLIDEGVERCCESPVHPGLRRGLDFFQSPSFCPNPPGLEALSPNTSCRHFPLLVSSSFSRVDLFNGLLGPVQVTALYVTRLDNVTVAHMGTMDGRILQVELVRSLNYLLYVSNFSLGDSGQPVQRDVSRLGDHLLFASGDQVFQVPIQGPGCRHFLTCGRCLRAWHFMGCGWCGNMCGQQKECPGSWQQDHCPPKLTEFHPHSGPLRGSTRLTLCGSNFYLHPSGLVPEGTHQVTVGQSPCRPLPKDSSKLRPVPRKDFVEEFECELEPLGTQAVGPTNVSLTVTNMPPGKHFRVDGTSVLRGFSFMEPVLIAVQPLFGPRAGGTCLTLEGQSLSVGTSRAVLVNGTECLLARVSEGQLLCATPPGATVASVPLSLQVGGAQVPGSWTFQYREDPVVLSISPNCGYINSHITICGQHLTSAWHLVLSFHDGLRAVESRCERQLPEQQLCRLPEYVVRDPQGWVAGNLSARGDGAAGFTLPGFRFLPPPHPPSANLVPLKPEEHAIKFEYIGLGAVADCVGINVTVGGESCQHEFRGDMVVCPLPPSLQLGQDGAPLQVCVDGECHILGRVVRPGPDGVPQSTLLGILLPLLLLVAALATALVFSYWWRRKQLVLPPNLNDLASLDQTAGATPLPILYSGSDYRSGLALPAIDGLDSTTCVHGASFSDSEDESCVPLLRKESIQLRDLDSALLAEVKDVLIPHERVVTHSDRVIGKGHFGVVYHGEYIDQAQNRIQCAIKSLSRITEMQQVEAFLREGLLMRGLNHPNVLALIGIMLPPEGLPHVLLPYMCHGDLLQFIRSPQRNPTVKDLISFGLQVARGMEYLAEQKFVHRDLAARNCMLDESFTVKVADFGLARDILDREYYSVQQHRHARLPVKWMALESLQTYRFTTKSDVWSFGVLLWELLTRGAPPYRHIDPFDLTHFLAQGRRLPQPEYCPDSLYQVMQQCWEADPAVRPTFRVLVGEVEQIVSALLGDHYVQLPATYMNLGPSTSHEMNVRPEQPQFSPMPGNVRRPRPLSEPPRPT

## CCc1c(C(=O)Nc2ccc(Oc3ccnc4[nH]c(=O)[nH]c34)c(F)c2)cnn1-c1cncnc1 [Example 1, 5-ethyl-N-(3-fluoro-4-((2-oxo-2,3-dihydro-1H-imidazo[4,5-b]pyridine-7-yl)oxy)phenyl)-1-(pyrimidine-5-yl)-1H-pyrazole-4-carboxamide]
[1]
  IC50: > 5000 nM
[2]
  IC50: > 5000 nM

## CCc1c(C(=O)Nc2ccc(Oc3ccnc4[nH]c(=O)n(C(C)C)c34)c(F)c2)cnn1-c1cncnc1 [Example 2, 5-ethyl-N-(3-fluoro-4-((1-isopropyl-2-oxo-2,3-dihydro-1H-imidazo[4,5-b]pyridine-7-yl)oxy)phenyl)-1-(pyrimidine-5-yl)-1H-pyrazole-4-carboxamide]
[1]
  IC50: < 50 nM
[2]
  IC50: > 5000 nM

## CC(C)n1c(=O)[nH]c2nccc(Oc3ccc(NC(=O)c4cnn(-c5ccccn5)c4C(F)(F)F)cc3F)c21 [Example 3, N-(3-fluoro-4-((1-isopropyl-2-oxo-2,3-dihydro-1H-imidazo[4,5-b]pyridine-7-yl)oxy)phenyl)-1-(pyridine-2-yl)-5-(trifluoromethyl)-1H-pyrazole-4-carboxamide]
[1]
  IC50: < 50 nM
[2]
  IC50: > 5000 nM

## CC(C)n1c(=O)[nH]c2nccc(Oc3ccc(NC(=O)c4cnn(-c5cncnc5)c4C(F)(F)F)cc3F)c21 [Example 4, N-(3-fluoro-4-((1-isopropyl-2-oxo-2,3-dihydro-1H-imidazo[4,5-b]pyridine-7-yl)oxy)phenyl)-1-(pyrimidine-5-yl)-5-(trifluoromethyl)-1H-pyrazole-4-carboxamide]
[1]
  IC50: < 50 nM
[2]
  IC50: > 5000 nM

## Cc1c(C(=O)Nc2ccc(Oc3ccnc4[nH]c(=O)n(C(C)C)c34)c(F)c2)cnn1-c1cncnc1 [Example 5, N-(3-fluoro-4-((1-isopropyl-2-oxo-2,3-dihydro-1H-imidazo[4,5-b]pyridine-7-yl)oxy)phenyl)-5-methyl-1-(pyrimidine-5-yl)-1H-pyrazole-4-carboxamide]
[1]
  IC50: 50 to 500 nM
[2]
  IC50: 500 to 5000 nM

## CCc1c(C(=O)Nc2ccc(Oc3ccnc4[nH]c(=O)n(C5CCCC5)c34)c(F)c2)cnn1-c1cncnc1 [Example 6, N-(4-((1-cyclopentyl-2-oxo-2,3-dihydro-1H-imidazo[4,5-b]pyridine-7-yl)oxy)-3-fluorophenyl)-5-ethyl-1-(pyrimidine-5-yl)-1H-pyrazole-4-carboxamide]
[1]
  IC50: 50 to 500 nM
[2]
  IC50: > 5000 nM

## CC(C)n1c(=O)[nH]c2nccc(Oc3ccc(NC(=O)c4cnn(-c5ncccc5F)c4C(F)(F)F)cc3F)c21 [Example 7, N-(3-fluoro-4-((1-isopropyl-2-oxo-2,3-dihydro-1H-imidazo[4,5-b]pyridine-7-yl)oxy)phenyl)-1-(3-fluoropyridine-2-yl)-5-(trifluoromethyl)-1H-pyrazole-4-carboxamide]
[1]
  IC50: < 50 nM
[2]
  IC50: 500 to 5000 nM

## Cc1cccnc1-n1ncc(C(=O)Nc2ccc(Oc3ccnc4[nH]c(=O)n(C(C)C)c34)c(F)c2)c1C(F)(F)F [Example 8, N-(3-fluoro-4-((1-isopropyl-2-oxo-2,3-dihydro-1H-imidazo[4,5-b]pyridine-7-yl)oxy)phenyl)-1-(3-methylpyridine-2-yl)-5-(trifluoromethyl)-1H-pyrazole-4-carboxamide]
[1]
  IC50: < 50 nM
[2]
  IC50: 500 to 5000 nM

## Cc1ccc(-n2ncc(C(=O)Nc3ccc(Oc4ccnc5[nH]c(=O)n(C(C)C)c45)c(F)c3)c2C(F)(F)F)nc1 [Example 9, N-(3-fluoro-4-((1-isopropyl-2-oxo-2,3-dihydro-1H-imidazo[4,5-b]pyridine-7-yl)oxy)phenyl)-1-(5-methylpyridine-2-yl)-5-(trifluoromethyl)-1H-pyrazole-4-carboxamide]
[1]
  IC50: 50 to 500 nM
[2]
  IC50: > 5000 nM

## CC(C)n1c(=O)[nH]c2nccc(Oc3ccc(NC(=O)c4cnn(-c5ncccc5Cl)c4C(F)(F)F)cc3F)c21 [Example 10, 1-(3-chloropyridine-2-yl)-N-(3-fluoro-4-((1-isopropyl-2-oxo-2,3-dihydro-1H-imidazo[4,5-b]pyridine-7-yl)oxy)phenyl)-5-(trifluoromethyl)-1H-pyrazole-4-carboxamide]
[1]
  IC50: < 50 nM
[2]
  IC50: 500 to 5000 nM

## CC(C)n1c(=O)[nH]c2nccc(Oc3ccc(NC(=O)c4cnn(-c5ccc(Cl)cn5)c4C(F)(F)F)cc3F)c21 [Example 11, 1-(5-chloropyridine-2-yl)-N-(3-fluoro-4-((1-isopropyl-2-oxo-2,3-dihydro-1H-imidazo[4,5-b]pyridine-7-yl)oxy)phenyl)-5-(trifluoromethyl)-1H-pyrazole-4-carboxamide]
[1]
  IC50: 50 to 500 nM
[2]
  IC50: > 5000 nM

## CC(C)n1c(=O)[nH]c2nccc(Oc3ccc(NC(=O)c4cnn(-c5ncccc5C(F)(F)F)c4C(F)(F)F)cc3F)c21 [Example 12, N-(3-fluoro-4-((1-isopropyl-2-oxo-2,3-dihydro-1H-imidazo[4,5-b]pyridine-7-yl)oxy)phenyl)-5-(trifluoromethyl)-1-(3-(trifluoromethyl)pyridine-2-yl)-1H-pyrazole-4-carboxamide]
[1]
  IC50: < 50 nM
[2]
  IC50: 500 to 5000 nM

## CC(C)n1c(=O)[nH]c2nccc(Oc3ccc(NC(=O)c4cnn(-c5ccc(C(F)(F)F)cn5)c4C(F)(F)F)cc3F)c21 [Example 13, N-(3-fluoro-4-((1-isopropyl-2-oxo-2,3-dihydro-1H-imidazo[4,5-b]pyridine-7-yl)oxy)phenyl)-5-(trifluoromethyl)-1-(5-(trifluoromethyl)pyridine-2-yl)-1H-pyrazole-4-carboxamide]
[1]
  IC50: > 5000 nM
[2]
  IC50: > 5000 nM

## Cc1ccnc(-n2ncc(C(=O)Nc3ccc(Oc4ccnc5[nH]c(=O)n(C(C)C)c45)c(F)c3)c2C(F)(F)F)c1 [Example 14, N-(3-fluoro-4-((1-isopropyl-2-oxo-2,3-dihydro-1H-imidazo[4,5-b]pyridine-7-yl)oxy)phenyl)-1-(4-methylpyridine-2-yl)-5-(trifluoromethyl)-1H-pyrazole-4-carboxamide]
[1]
  IC50: < 50 nM
[2]
  IC50: > 5000 nM

## CC(C)n1c(=O)[nH]c2nccc(Oc3ccc(NC(=O)c4cnn(-c5cc(Cl)ccn5)c4C(F)(F)F)cc3F)c21 [Example 15, 1-(4-chloropyridine-2-yl)-N-(3-fluoro-4-((1-isopropyl-2-oxo-2,3-dihydro-1H-imidazo[4,5-b]pyridine-7-yl)oxy)phenyl)-5-(trifluoromethyl)-1H-pyrazole-4-carboxamide]
[1]
  IC50: < 50 nM
[2]
  IC50: > 5000 nM

## CC(C)n1c(=O)[nH]c2nccc(Oc3ccc(NC(=O)c4cnn(-c5cc(Br)ccn5)c4C(F)(F)F)cc3F)c21 [Example 16, 1-(4-bromopyridine-2-yl)-N-(3-fluoro-4-((1-isopropyl-2-oxo-2,3-dihydro-1H-imidazo[4,5-b]pyridine-7-yl)oxy)phenyl)-5-(trifluoromethyl)-1H-pyrazole-4-carboxamide]
[1]
  IC50: < 50 nM
[2]
  IC50: > 5000 nM

## CC(C)n1c(=O)[nH]c2nccc(Oc3ccc(NC(=O)c4cnn(-c5cc(C(F)(F)F)ccn5)c4C(F)(F)F)cc3F)c21 [Example 17, N-(3-fluoro-4-((1-isopropyl-2-oxo-2,3-dihydro-1H-imidazo[4,5-b]pyridine-7-yl)oxy)phenyl)-5-(trifluoromethyl)-1-(4-(trifluoromethyl)pyridine-2-yl)-1H-pyrazole-4-carboxamide]
[1]
  IC50: 50 to 500 nM
[2]
  IC50: > 5000 nM
